This is an account of results in patent US9656962B2, “Ring-contracted morphinans and the use thereof” (Purdue Pharma L.P., priority 2013, dated 2017).

Common to all, as to type: biochemical
Experiment [1] deals with T1, μ-opioid receptor (Homo sapiens (Human), UniProt P35372). The experiment can be described thus: μ-opioid receptor [35S]GTPγS functional assay, HEK-293 or CHO cells (Table 4). The note with it: for Emax: relative to DAMGO; for EC50: μ GTP. The protocol:
(§1) μ-Opioid Receptor Functional Assay Procedures: [^35S]GTPγS functional assays were conducted using freshly thawed μ-receptor membranes prepared in-house from a cell line expressing recombinant μ opioid receptor in a HEK-293, CHO or U-2 OS cell background, or purchased from a commercial source (Perkin Elmer, Shelton, Conn.; or DiscovRx, Fremont, Calif.). Assay reactions were prepared by sequentially adding the following reagents to binding buffer (100 mM NaCl, 10 mM MgCl2, 20 mM HEPES, pH 7.4) on ice (final concentrations indicated): membrane protein (0.026 mg/mL), saponin ([…]), GDP ([…]) and [^35S]GTPγS (0.20 nM; Perkin Elmer, Shelton, Conn.). The prepared membrane solution (190 μl/well) was transferred to 96-shallow well polypropylene plates containing 10 μl of 20× concentrated stock solutions of the agonist [D-Ala^2, N-methyl-Phe^4 Gly-ol^5]-enkephalin (DAMGO) prepared in dimethyl sulfoxide (DMSO). Plates were incubated for 30 min at about 25° C. with shaking Reactions were terminated by rapid filtration onto 96-well Unifilter GF/B filter plates (Perkin Elmer, Shelton, Conn.) using a 96-well tissue harvester (Perkin Elmer, Shelton, Conn.) followed by three filtration washes with 200 μl of ice-cold wash buffer (10 mM NaH2PO4, 10 mM Na2HPO4, pH 7.4). Filter plates were subsequently dried at 50° C. for 2-3 hours. BetaScint scintillation cocktail (Perkin Elmer, Shelton, Conn.) was added (50 μl/well) and plates were counted using a Packard Top-Count for 1 min/well. Data were analyzed using the sigmoidal dose-response curve fitting functions in GraphPad PRISM v. 3.0, or an in-house function for non-linear, sigmoidal dose-response curve-fitting. [^35S]GTPγS functional assays can also be conducted using freshly thawed μ-receptor membranes prepared from a cell line expressing recombinant μ opioid receptor in a CHO-K1 cell background.
(§2) μ GTP Emax (%) is the maximal effect elicited by a compound relative to the effect elicited by DAMGO, a standard μ agonist.
In TABLE 4, activity response of certain Compounds of the Invention to the μ- and κ-opioid receptors was determined as described above for functional assays using HEK-293 or CHO cells.
(In general: GTPγS is a poorly hydrolysed GTP analogue; its binding reports G protein activation.)

The target of a further experiment is κ-opioid receptor (Homo sapiens (Human), UniProt P41145). In words: κ-opioid receptor [35S]GTPγS functional assay, U-2 OS cells (Table 5). The note with it: for Emax: relative to U69,593; for EC50: κ GTP. The protocol:
κ-Opioid Receptor Functional Assay Procedures: Functional [^35S]GTPγS binding assays were conducted as follows. κ opioid receptor membrane solution was prepared by sequentially adding final concentrations of 0.026 μg/μl κ membrane protein (in-house), 10 μg/mL saponin, 3 μM GDP and 0.20 nM [^35S]GTPγS to binding buffer (100 mM NaCl, 10 mM MgCl2, 20 mM HEPES, pH 7.4) on ice. The prepared membrane solution (190 μl/well) was transferred to 96-shallow well polypropylene plates containing 10 μl of 20× concentrated stock solutions of agonist prepared in DMSO. Plates were incubated for 30 min at a temperature of about 25° C. with shaking. Reactions were terminated by rapid filtration onto 96-well Unifilter GF/B filter plates (Perkin Elmer, Shelton, Conn.) using a 96-well tissue harvester (Packard) and followed by three filtration washes with 200 μl ice-cold binding buffer (10 mM NaH2PO4, 10 mM Na2HPO4, pH 7.4). Filter plates were subsequently dried at 50° C. for 2-3 hours. Fifty μl/well scintillation cocktail (Perkin Elmer, Shelton, Conn.) was added and plates were counted in a Packard Top-Count for 1 min/well.
κ GTP Emax (%) is the maximal effect elicited by a compound relative to the effect elicited by U69,593.
The following TABLE 5 provides results on the activity response of certain Compounds of the Invention at the μ- and κ-opioid receptors determined as described above using U-2 OS cells.

Experiment [2] has as its target T1, μ-opioid receptor. The experiment can be described thus: μ-opioid receptor [35S]GTPγS functional assay, U-2 OS cells (Table 5). The settings on record: for Emax: relative to DAMGO; for EC50: μ GTP. The protocol: as §1, §2

The term Emax denotes the size of the effect at its maximum, as opposed to the concentration needed. As a reminder, the EC50 is the concentration giving half of the maximal effect. A low value points to an effect from little substance. As for `O=C([C@@H]1C[C@]23CCN(CC4CC4)[C@H](Cc4ccc(O)cc42)[C@]3(O)C1)N1CCN(c2ccccc2)CC1` [Compound 86, ((2R,3aS,4R,9bS)-12-(cyclopropylmethyl)-3a,8-dihydroxy-1,2,3,3a,4,5-hexahydro-4,9b-(epiminoethano)cyclopenta-[a]naphthalen-2-yl)(4-phenylpiperazin-1-yl)methanone], on μ-opioid receptor [1], the Emax worked out at 12.8 ± 0.63% and the midpoint of the response, the EC50, lay at 0.0288 ± 0.0105 µM.
Take `O=C([C@@H]1C[C@]23CCN(CC4CC4)[C@H](Cc4ccc(O)cc42)[C@]3(O)C1)N1CCC(N2CCCC2)CC1` [Compound 88, ((2R,3aS,4R,9bS)-12-(cyclopropylmethyl)-3a,8-dihydroxy-1,2,3,3a,4,5-hexahydro-4,9b-(epiminoethano)cyclopenta-[a]naphthalen-2-yl)(4-(pyrrolidin-1-yl)piperidin-1-yl)methanone]: the Emax on μ-opioid receptor [1] came out at 0%. In addition, the EC50 at μ-opioid receptor [1] (bound given in μM) was > 20 µM.
The corresponding values for `O=C([C@H]1C[C@]23CCN(CC4CC4)[C@H](Cc4ccc(O)cc42)[C@]3(O)C1)N1CCS(=O)(=O)CC1` [Compound 94, ((2S,3aS,4R,9bS)-12-(cyclopropylmethyl)-3a,8-dihydroxy-1,2,3,3a,4,5-hexahydro-4,9b-(epiminoethano)cyclopenta-[a]naphthalen-2-yl)(1,1-dioxido-thiomorpholino)methanone] are 10.6 ± 3.41% and > 20 µM.
`O=C(NCc1cccnc1)[C@@H]1C[C@]23CCN(CC4CC4)[C@H](Cc4ccc(O)cc42)[C@]3(O)C1` [Compound 89, (2R,3aS,4R,9bS)-12-(cyclopropylmethyl)-3a,8-dihydroxy-N-(pyridin-3-ylmethyl)-1,2,3,3a,4,5-hexahydro-4,9b-(epimino-ethano)cyclopenta[a]naphthalene-2-carboxamide] had an Emax on μ-opioid receptor [1] of 4.5%. Moreover, the EC50 on μ-opioid receptor [1] (bound given in μM) was > 20 µM.
As for `O=C(NCc1ccncc1)[C@@H]1C[C@]23CCN(CC4CC4)[C@H](Cc4ccc(O)cc42)[C@]3(O)C1` [Compound 90, (2R,3aS,4R,9bS)-12-(cyclopropylmethyl)-3a,8-dihydroxy-N-(pyridin-4-ylmethyl)-1,2,3,3a,4,5-hexahydro-4,9b-(epimino-ethano)cyclopenta[a]naphthalene-2-carboxamide], the Emax at μ-opioid receptor [1] is 8.14 ± 1.3%. The EC50 at μ-opioid receptor [1] (bound given in μM) was > 20 µM.
The matching figures for `Oc1ccc2c(c1)C13CCN(CC4CC4)[C@H](C2)[C@]1(O)C[C@H](NCc1ccccc1)C3` (stereo in doubt) [Compound 80, (2R,3aS,4R,9bS)-2-(benzylamino)-12-(cyclopropylmethyl)-2,3,4,5-tetrahydro-4,9b-(epiminoethano)-cyclopenta-[a]naphthalene-3a,8(1H)-diol]: 1% and > 20 µM.
As to `COc1ccc2c(c1)[C@]13CCN(CC4CC4)[C@H](C2)[C@]1(O)C[C@@H](C#N)C3` [Compound 26, (2S,3aS,4R,9bS)-12-(cyclopropylmethyl)-3a-hydroxy-8-methoxy-1,2,3,3a,4,5-hexahydro-4,9b-(epiminoethano)-cyclopenta[a]naphthalene-2-carbonitrile], the results for the Emax on κ-opioid receptor and on μ-opioid receptor [2] were 106 ± 2.03% and 63 ± 5.77%, respectively. In addition, the EC50 stood at 829 ± 100 nM at κ-opioid receptor and 1.13 ± 0.117 µM at μ-opioid receptor [2].
At κ-opioid receptor, `O=C([C@H]1C[C@]23CCN(CC4CC4)[C@H](Cc4ccc(O)cc42)[C@]3(O)C1)N1CCCCC1` [Compound 57, ((2S,3aS,4R,9bS)-12-(cyclopropylmethyl)-3a,8-dihydroxy-1,2,3,3a,4,5-hexahydro-4,9b-(epiminoethano)cyclopenta-[a]naphthalen-2-yl)(piperidin-1-yl)methanone] came in with an Emax of 90.3 ± 2.6% and a 50% effective concentration (EC50) of 5.88 ± 0.79 nM. At μ-opioid receptor [2], this molecule yielded an Emax of 37.7 ± 6.69% and an EC50 of 0.00279 ± 0.00076 µM.
As to `COc1ccc2c(c1)[C@]13CCN(CC4CC4)[C@H](C2)[C@]1(O)C[C@H](N)C3` [Compound 21, (2R,3aS,4R,9bS)-2-amino-12-(cyclopropylmethyl)-8-methoxy-1,2,3,3a,4,5-hexahydro-4,9b-(epimino-ethano)cyclopenta[a]naphthalene-3a-ol], the Emax at κ-opioid receptor worked out at 90 ± 2.08%; on μ-opioid receptor [2], 8.67 ± 1.76%. Further, the figures for the EC50 at κ-opioid receptor and on μ-opioid receptor [2] (bound given in μM) were 5590 ± 738 nM and > 20 µM, respectively.
For `CN(CC(=O)O)C(=O)[C@@H]1C[C@]23CCN(CC4CC4)[C@H](Cc4ccc(O)cc42)[C@]3(O)C1` [Compound 66, 2-((2R,3aS,4R,9bS)-12-(cyclopropyl-methyl)-3a,8-dihydroxy-N-methyl-1,2,3,3a,4,5-hexahydro-4,9b-(epiminoethano)cyclopenta[a]naphthalene-2-carboxamido)acetic acid], the figures for the Emax on κ-opioid receptor and at μ-opioid receptor [2] were 77.3 ± 0.88% and 15.5 ± 1.5%, respectively. Moreover, the EC50 at κ-opioid receptor came to 168 ± 8.15 nM; on μ-opioid receptor [2], 0.029 ± 0.00429 µM.
For `CCN(CC)C(=O)[C@@H]1C[C@]23CCN(CC4CC4)[C@H](Cc4ccc(O)cc42)[C@]3(O)C1` [Compound 59, (2R,3aS,4R,9bS)-12-(cyclopropylmethyl)-N,N-diethyl-3a,8-dihydroxy-1,2,3,3a,4,5-hexahydro-4,9b-(epiminoethano)cyclo-penta[a]naphthalene-2-carboxamide], at κ-opioid receptor, the Emax was 105 ± 4.33% and the EC50 stood at 26 ± 2.61 nM. Moreover, on μ-opioid receptor [2], the Emax worked out at 25.7 ± 0.33% and a half-maximal effect (EC50) was put at 0.0226 ± 0.00631 µM.
The corresponding values for `CC(C)CNC(=O)[C@@H]1C[C@]23CCN(CC4CC4)[C@H](Cc4ccc(O)cc42)[C@]3(O)C1` [Compound 35, (2R,3aS,4R,9bS)-12-(cyclopropylmethyl)-3a,8-dihydroxy-N-isobutyl-1,2,3,3a,4,5-hexahydro-4,9b-(epiminoethano)cyclo-penta[a]naphthalene-2-carboxamide] are 111 ± 2.96%, 7.75 ± 0.41 nM, 29.7 ± 0.33% and 0.0197 ± 0.00527 µM.
As to `COc1ccc2c(c1)[C@]13CCN(CC4CC4)[C@H](C2)[C@]1(O)C[C@H](C(=O)O)C3` [Compound 14, (2R,3aS,4R,9bS)-12-(cyclopropylmethyl)-3a-hydroxy-8-methoxy-1,2,3,3a,4,5-hexahydro-4,9b-(epiminoethano)-cyclopenta[a]naphthalene-2-carboxylic acid], at κ-opioid receptor, the Emax came out at 100 ± 2.52% and the EC50 amounted to 147 ± 11.6 nM. For the same molecule, on μ-opioid receptor [2], the Emax was 26.7 ± 2.4% and the response was half-maximal at 0.126 ± 0.0377 µM (EC50).
Turning to `O=C([C@@H]1C[C@]23CCN(CC4CC4)[C@H](Cc4ccc(O)cc42)[C@]3(O)C1)N1CCCCC1` [Compound 56, ((2R,3aS,4R,9bS)-12-(cyclopropylmethyl)-3a,8-dihydroxy-1,2,3,3a,4,5-hexahydro-4,9b-(epiminoethano)cyclopenta-[a]naphthalen-2-yl)(piperidin-1-yl)methanone], at κ-opioid receptor, the Emax came to 97.8 ± 3.67% and the response was half-maximal at 20.8 ± 1.79 nM (EC50). Moreover, on μ-opioid receptor [2], the Emax came out at 16 ± 1.53% and the EC50 worked out at 0.0104 ± 0.00203 µM.
The matching figures for `O=C(NCc1ccc(Cl)cc1Cl)[C@@H]1C[C@]23CCN(CC4CC4)[C@H](Cc4ccc(O)cc42)[C@]3(O)C1` [Compound 44, (2R,3aS,4R,9bS)-12-(cyclopropylmethyl)-N-(2,4-dichlorobenzyl)-3a,8-dihydroxy-1,2,3,3a,4,5-hexahydro-4,9b-(epimino-ethano)cyclopenta[a]naphthalene-2-carboxamide]: 94.7 ± 7.13%, 0.26 ± 0.033 nM, 28.3 ± 1.86% and 0.00375 ± 0.00035 µM.
